Measured values as given in patent US20230000842A1, “METHODS OF TREATING CARTILAGE DISORDERS THROUGH INHIBITION OF CLK AND DYRK” (SAMUMED, LLC, priority 2019, published 2023).

Experiments:
[1] = tested on: primary human mesenchymal stem cells (hMSCs); test: Chondrogenesis screening using primary human mesenchymal stem cells; type: cell-based; details: Homo sapiens, Mesenchymal stem cells, hMSC chondrogenesis; for Emax: maximum activity relative to TGF-β3 (10 ng/mL) positive control, read-out: Max. Activity as % TGF-β3 activity; for EC50: concentration required to induce 50% levels of chondrogenesis with TGF-β3 as positive control, read-out: Conc (nM) of 50% TGF-β3 activity
Method in brief: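 Derived values are EC50 for 50% chondrogenesis, maximal activity and the dose giving it. These come from nodule area in passage 3–6 primary hMSCs, expressed as fold change over the mean of 3 same-plate DMSO wells, 2–3 replicates per concentration. TGF-β3 served as positive control.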

[2] = tested on: Wnt pathway activity (SW480 colon carcinoma cells stably expressing the Sp5-Luc reporter); test: Wnt pathway activity screening assay (Sp5-Luc reporter gene assay); details: Homo sapiens, SW480, Table 4; SW480 cells stably expressing Sp5-Luc reporter, 10-point dose-response from 10 μM, 36 to 48 hours
CLK2 kinase = CLK2 kinase (Homo sapiens, UniProt P49760); test: CLK2 kinase activity assay (Z-lyte FRET); type: biochemical; details: Z-lyte Ser/Thr 6 peptide, 60 μM ATP, 1 h at room temperature;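 also: FRET read-out as coumarin to fluorescein emission ratio, unphosphorylated peptide as 0% and phosphorylated peptide as 100% controls, duplicate reactions, non-linear regression fit of dose-response curves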
CLK3 kinase = CLK3 kinase (Homo sapiens, UniProt P49761); test: CLK3 kinase activity assay (Z-lyte FRET); type: biochemical; details: Z-lyte Ser/Thr 18 peptide, 156 μM ATP, 1 h at room temperature;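 also: kinase activity read as coumarin/fluorescein emission ratio by FRET, unphosphorylated peptide as 0% and phosphorylated peptide as 100% control, values from non-linear regression of dose-response curves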
CLK3 kinase, sequence (P49761 whole entry): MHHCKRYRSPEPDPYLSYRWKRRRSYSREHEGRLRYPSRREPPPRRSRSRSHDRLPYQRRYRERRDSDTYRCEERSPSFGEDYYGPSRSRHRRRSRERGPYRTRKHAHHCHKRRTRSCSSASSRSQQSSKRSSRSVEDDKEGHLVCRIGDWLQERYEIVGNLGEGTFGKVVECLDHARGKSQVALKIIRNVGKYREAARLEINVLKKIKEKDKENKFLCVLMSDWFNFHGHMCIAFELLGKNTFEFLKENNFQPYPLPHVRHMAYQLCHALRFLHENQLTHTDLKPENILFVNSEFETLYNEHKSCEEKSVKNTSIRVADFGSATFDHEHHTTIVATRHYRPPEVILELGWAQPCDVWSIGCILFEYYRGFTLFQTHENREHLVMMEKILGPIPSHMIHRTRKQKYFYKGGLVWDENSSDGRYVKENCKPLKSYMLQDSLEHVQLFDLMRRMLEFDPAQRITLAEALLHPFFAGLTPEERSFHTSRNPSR

CLK2 kinase, sequence (P49760 whole entry): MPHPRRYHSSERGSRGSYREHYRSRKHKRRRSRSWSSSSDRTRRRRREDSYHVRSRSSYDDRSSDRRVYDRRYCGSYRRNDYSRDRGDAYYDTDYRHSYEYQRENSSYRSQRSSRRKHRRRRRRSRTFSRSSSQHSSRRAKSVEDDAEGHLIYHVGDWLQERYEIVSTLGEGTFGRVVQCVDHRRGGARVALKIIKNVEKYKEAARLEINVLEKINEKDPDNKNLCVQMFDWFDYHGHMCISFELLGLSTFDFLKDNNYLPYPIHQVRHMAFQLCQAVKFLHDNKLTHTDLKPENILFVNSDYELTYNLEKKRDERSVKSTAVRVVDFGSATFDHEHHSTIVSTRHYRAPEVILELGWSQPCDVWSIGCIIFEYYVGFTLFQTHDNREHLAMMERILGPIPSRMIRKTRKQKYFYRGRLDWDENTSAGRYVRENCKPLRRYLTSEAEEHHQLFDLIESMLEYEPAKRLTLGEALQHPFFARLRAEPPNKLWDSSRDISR

| Compound | Emax [1] [%] | EC50 [2] [µM] | EC50 (CLK2 kinase) [µM] | EC50 (CLK3 kinase) [µM] | EC50 [1] [nM] |
| --- | --- | --- | --- | --- | --- |
| c1cnc2[nH]c(-c3n[nH]c4ccc(-c5cncc(OCCN6CCCC6)c5)cc34)cc2c1 [compound 453] | 42.7 | 3.29 | 0.002 | 0.246 | – |
| Nc1cncc(-c2ccc3[nH]nc(-c4cc5c(N6CCCCC6)ccnc5[nH]4)c3c2)c1 [compound 455] | 130 | 0.604 | 0.005 | 0.11 | – |
| Nc1cncc(-c2cc3c(-c4cc5c(N6CCCCC6)cncc5[nH]4)n[nH]c3cn2)c1 [compound 456] | 93.5 | 2.96 | 0.002 | 0.094 | 30 |
| CC(=O)Nc1cncc(-c2ccc3[nH]nc(-c4cc5c(N6CCCCC6)nccc5[nH]4)c3c2)c1 [compound 457] | 244 | 0.445 | 0.001 | 0.052 | 10 |
| CCCCC(=O)Nc1cncc(-c2ccc3[nH]nc(-c4cc5c(N6CCCCC6)cccc5[nH]4)c3n2)c1 [compound 458] | 68.6 | 0.572 | 0.02 | 2.19 | 100 |
| CCCCC(=O)Nc1cncc(-c2ccc3[nH]nc(-c4cc5c(N6CCCCC6)nccc5[nH]4)c3n2)c1 [compound 459] | 54.5 | 4.05 | 0.013 | 0.269 | 30 |
| O=C(Nc1cncc(-c2cnc3[nH]nc(-c4cc5c(N6CCCCC6)nccc5[nH]4)c3c2)c1)C1CC1 [compound 460] | 42.5 | 3.85 | 0.008 | 0.231 | – |
| O=C(Nc1cncc(-c2cc3c(-c4cc5c(N6CCCCC6)nccc5[nH]4)n[nH]c3cn2)c1)C1CCC1 [compound 461] | 42.4 | 4.07 | 0.019 | 0.342 | – |
| CC(C)Nc1cncc(-c2cnc3[nH]nc(-c4cc5c(N6CCCCC6)nccc5[nH]4)c3c2)c1 [compound 463] | 33.6 | 3.41 | 0.013 | 1.28 | – |
| CN(C)Cc1cncc(-c2ccc3[nH]nc(-c4cc5c(N6CCCCC6)cccc5[nH]4)c3c2)c1 [compound 464] | 205 | 0.575 | 0.013 | 3.66 | 10 |
| CN(C)Cc1cncc(-c2ccc3[nH]nc(-c4cc5c(N6CCCCC6)nccc5[nH]4)c3c2)c1 [compound 465] | 220 | 4.71 | 0.002 | 0.293 | – |
| c1ncc(-c2ccc3[nH]nc(-c4cc5c(N6CCCCC6)cncc5[nH]4)c3c2)cc1CN1CCCC1 [compound 466] | 24.7 | 1.84 | 0.003 | 0.064 | – |
| FC1(F)CCN(Cc2cncc(-c3ccc4[nH]nc(-c5cc6c(N7CCCCC7)cccc6[nH]5)c4c3)c2)C1 [compound 467] | 160 | 0.75 | 0.012 | 0.279 | 30 |
| FC1(F)CCN(Cc2cncc(-c3ccc4[nH]nc(-c5cc6c(N7CCCCC7)ccnc6[nH]5)c4n3)c2)C1 [compound 468] | 37.6 | 5.27 | 0.005 | 0.166 | – |
| c1cc2[nH]c(-c3n[nH]c4ccc(-c5cncc(CN6CCCCC6)c5)cc34)cc2c(N2CCCCC2)n1 [compound 469] | 48.1 | 4.21 | 0.006 | 0.47 | – |
| CN1CCN(c2cncc3[nH]c(-c4n[nH]c5ccc(-c6cncc(N)c6)cc45)cc23)CC1 [compound 470] | 50.9 | 8.25 | 0.002 | 0.04 | – |

| Compound | Emax [1] [%] | EC50 [2] [µM] | EC50 (CLK2 kinase) [µM] | EC50 (CLK3 kinase) [µM] | EC50 [1] [nM] |
| --- | --- | --- | --- | --- | --- |
| CN1CCN(c2ccnc3[nH]c(-c4n[nH]c5ccc(-c6cncc(N)c6)cc45)cc23)CC1 [compound 471] | 50.2 | 1.17 | 0.003 | 0.089 | – |
| CN1CCN(c2nccc3[nH]c(-c4n[nH]c5cnc(-c6cncc(N)c6)cc45)cc23)CC1 [compound 472] | 49.8 | > 10 | 0.01 | 1.08 | – |
| CCC(=O)Nc1cncc(-c2cc3c(-c4cc5c(N6CCN(C)CC6)nccc5[nH]4)n[nH]c3cn2)c1 [compound 473] | 70 | > 10 | 0.003 | 0.285 | 30 |
| CC(C)C(=O)Nc1cncc(-c2cc3c(-c4cc5c(N6CCN(C)CC6)cccc5[nH]4)n[nH]c3cn2)c1 [compound 474] | 36.4 | 0.7 | 0.017 | 2.04 | – |
| CC(C)C(=O)Nc1cncc(-c2ccc3[nH]nc(-c4cc5c(N6CCN(C)CC6)nccc5[nH]4)c3c2)c1 [compound 475] | 21 | 7.69 | 0.011 | 0.569 | – |
| CC(C)C(=O)Nc1cncc(-c2cnc3[nH]nc(-c4cc5c(N6CCN(C)CC6)nccc5[nH]4)c3c2)c1 [compound 476] | 61.6 | > 10 | 0.007 | 0.8 | 30 |
| CC(C)CC(=O)Nc1cncc(-c2ccc3[nH]nc(-c4cc5c(N6CCN(C)CC6)ccnc5[nH]4)c3n2)c1 [compound 477] | 49.5 | 3.45 | 0.003 | 0.204 | – |
| CN1CCN(c2nccc3[nH]c(-c4n[nH]c5cnc(-c6cncc(NC(=O)C(C)(C)C)c6)cc45)cc23)CC1 [compound 478] | 88.2 | 1.88 | 0.009 | 0.137 | 10 |
| CN1CCN(c2cncc3[nH]c(-c4n[nH]c5ccc(-c6cncc(NC(=O)CC(C)(C)C)c6)cc45)cc23)CC1 [compound 479] | 30.8 | 3.48 | 0.004 | 0.145 | – |
| CN1CCN(c2ccnc3[nH]c(-c4n[nH]c5ccc(-c6cncc(NC(=O)CC(C)(C)C)c6)nc45)cc23)CC1 [compound 480] | 30.3 | 3.87 | 0.007 | 0.186 | – |
| CN1CCN(c2nccc3[nH]c(-c4n[nH]c5ncc(-c6cncc(NC(=O)C7CCCC7)c6)cc45)cc23)CC1 [compound 481] | 30.3 | > 10 | 0.009 | 0.741 | – |
| CN1CCN(c2nccc3[nH]c(-c4n[nH]c5ccc(-c6cncc(NC(=O)C7CCCCC7)c6)cc45)cc23)CC1 [compound 482] | 37.8 | 5.27 | 0.014 | 2.38 | – |
| CN1CCN(c2nccc3[nH]c(-c4n[nH]c5cnc(-c6cncc(NC(=O)C7CCCCC7)c6)cc45)cc23)CC1 [compound 483] | 60.8 | 3.42 | 0.008 | 0.303 | 10 |
| CN1CCN(c2nccc3[nH]c(-c4n[nH]c5ccc(-c6cncc(NC(=O)CC7CCNCC7)c6)cc45)cc23)CC1 [compound 484] | 42.8 | > 10 | 0.006 | 0.428 | – |
| CN1CCN(c2cncc3[nH]c(-c4n[nH]c5ccc(-c6cncc(NC(=O)CC7CCNCC7)c6)cc45)cc23)CC1 [compound 485] | 289 | > 10 | 0.004 | 0.303 | – |
| CN1CCN(c2nccc3[nH]c(-c4n[nH]c5ccc(-c6cncc(NC(=O)c7ccccc7)c6)cc45)cc23)CC1 [compound 486] | 34.6 | 2.14 | 0.006 | 0.291 | – |
